US9796733B2, “Imidazo-pyrazine derivatives useful as soluble guanylate cyclase activators” (Merck Sharp & Dohme Corp., priority 2014, dated 2017)
pEC50: −log10 of the molar value. Values belong to the compound of their own block, whether it stands above or below them.

Experiments:
[1] = target: T1, sGC α1/β1 heterodimer (Homo sapiens, UniProt Q02108+Q02153); experiment: Cell-based sGC functional assay (CASA assay): cGMP generation in CHO-K1/sGC cells, HTRF detection; conditions: for Emax: CHO-K1, percent activation relative to standard Compound A in CHO-K1/sGC cells, read-out: % Act.; for pEC50: inflection point (IP) of cGMP generation in CHO-K1/sGC cells, 4P fit, activity expressed as percentage of Compound A
T1 construct: expressed in transfected cells; host or cells: CHO-K1 (clone #7, CHO-K1/sGC)
T1 sequence (Q02108 1-690): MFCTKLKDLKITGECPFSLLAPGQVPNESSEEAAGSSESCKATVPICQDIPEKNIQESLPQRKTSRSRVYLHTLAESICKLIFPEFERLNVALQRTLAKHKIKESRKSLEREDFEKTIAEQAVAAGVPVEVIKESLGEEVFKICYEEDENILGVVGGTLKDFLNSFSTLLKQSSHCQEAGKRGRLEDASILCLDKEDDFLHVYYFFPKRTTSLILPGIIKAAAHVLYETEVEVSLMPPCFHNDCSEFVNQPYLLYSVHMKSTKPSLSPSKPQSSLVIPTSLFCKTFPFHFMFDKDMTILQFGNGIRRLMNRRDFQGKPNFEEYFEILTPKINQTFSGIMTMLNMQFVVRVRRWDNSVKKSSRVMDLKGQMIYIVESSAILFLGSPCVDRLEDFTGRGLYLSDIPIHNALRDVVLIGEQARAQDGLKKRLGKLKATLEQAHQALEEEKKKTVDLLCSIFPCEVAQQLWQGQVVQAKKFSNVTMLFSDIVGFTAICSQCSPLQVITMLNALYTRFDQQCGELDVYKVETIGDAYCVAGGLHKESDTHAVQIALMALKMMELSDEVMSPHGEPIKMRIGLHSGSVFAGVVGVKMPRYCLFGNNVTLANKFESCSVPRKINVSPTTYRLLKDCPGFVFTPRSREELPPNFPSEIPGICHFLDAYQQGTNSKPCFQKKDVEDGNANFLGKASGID
T1 sequence (Q02153 1-619): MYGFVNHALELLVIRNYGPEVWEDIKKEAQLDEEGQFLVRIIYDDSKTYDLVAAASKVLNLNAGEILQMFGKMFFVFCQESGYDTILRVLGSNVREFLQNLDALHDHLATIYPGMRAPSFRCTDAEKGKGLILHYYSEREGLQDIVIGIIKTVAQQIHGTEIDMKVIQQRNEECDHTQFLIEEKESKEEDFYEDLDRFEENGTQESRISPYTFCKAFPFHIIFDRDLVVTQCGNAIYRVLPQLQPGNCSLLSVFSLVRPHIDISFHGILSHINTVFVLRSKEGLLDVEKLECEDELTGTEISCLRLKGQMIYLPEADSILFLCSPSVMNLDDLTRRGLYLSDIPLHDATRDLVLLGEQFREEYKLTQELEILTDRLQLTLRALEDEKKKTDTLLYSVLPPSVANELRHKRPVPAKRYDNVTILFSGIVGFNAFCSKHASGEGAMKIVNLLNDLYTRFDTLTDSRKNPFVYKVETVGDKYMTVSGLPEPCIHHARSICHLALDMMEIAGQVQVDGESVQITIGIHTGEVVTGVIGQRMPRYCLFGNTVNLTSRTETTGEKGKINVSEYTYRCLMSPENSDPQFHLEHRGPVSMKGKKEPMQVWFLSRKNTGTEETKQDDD
Summary of the method: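 Stable CHO-K1/sGC cells in EBSS buffer with 5 mM MgCl2, 0.05% BSA and 0.5 mM IBMX were incubated with compound (2.5% DMSO final) ±1 μM DETA-NO for 1 hr at 37° C. cGMP was measured by HTRF. Activation is expressed as % of reference HDA Compound A maximum, with IP and max fold induction from a 4P fit.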

[2] = system: Spontaneously hypertensive rats (SHR); experiment: Acute efficacy in spontaneously hypertensive rats (SHR): telemetry blood pressure lowering after a single oral dose; type: in vivo, rat
Summary of the method: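 Male SHR carrying aortic telemetry implants (14-day recovery) received a single oral gavage of compound or vehicle (10% transcutol/20% Cremophor/70% water). Conscious blood pressure was sampled 30 s every 10 min and averaged hourly; change was taken against the prior-day vehicle baseline, reported as maximum peak SBP decrease at a given PO dose (mpk).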

Emax [1]: 127%
pEC50 [1]: 7.70
Structure (SMILES): Nc1nc(-c2cn3ccnc3c(CCCC(F)(F)F)n2)nc2c1C(c1ccc(F)cc1)(C1CC1)C(=O)N2 (stereo not drawn) [Example 205B, 4-amino-5-cyclopropyl-5-(4-fluorophenyl)-2-(8-(4,4,4-trifluorobutyl)imidazo[1,2-a]pyrazin-6-yl)-5H-pyrrolo[2,3-d]pyrimidin-6(7H)-one]
Maximum peak decrease of systolic blood pressure (SBP) in SHR, Cat. ([2]; P.O. 0.3 mpk): C (Category C=SBP in SHRs>40 mmHg)

Emax [1]: 121%
pEC50 [1]: 7.36
Structure (SMILES): CC1(c2ccc(OC(F)(F)F)cc2)C(=O)Nc2nc(-c3cn4ccnc4c(CCCC(F)(F)F)n3)nc(N)c21 (stereo not drawn) [Example 207B, 4-amino-5-methyl-2-(8-(4,4,4-trifluorobutyl)imidazo[1,2-a]pyrazin-6-yl)-5-(4-(trifluoromethoxy)phenyl)-5H-pyrrolo[2,3-d]pyrimidin-6(7H)-one]
Maximum peak decrease of systolic blood pressure (SBP) in SHR, Cat. ([2]; P.O. 0.3 mpk): B (Category B=SBP in SHRs 20-40 mmHg)

Emax [1]: 97%
pEC50 [1]: 7.40
Structure (SMILES): CC1(c2ccc(F)cn2)C(=O)Nc2nc(-c3cn4ccnc4c(CCCC(F)(F)F)n3)nc(N)c21 (stereo not drawn) [Example 210B, 4-amino-5-(5-fluoropyridin-2-yl)-5-methyl-2-(8-(4,4,4-trifluorobutyl)imidazo[1,2-a]pyrazin-6-yl)-5H-pyrrolo[2,3-d]pyrimidin-6(7H)-one]
Maximum peak decrease of systolic blood pressure (SBP) in SHR, Cat. ([2]; P.O. 0.3 mpk): A (Category A=SBP in SHRs<20 mmHg)

Emax [1]: 122%
pEC50 [1]: 7.12
Structure (SMILES): CC1(c2ccc(F)cc2)C(=O)Nc2nc(-c3cn4ccnc4c(CCCC(F)(F)F)n3)nc(N)c21 (stereo not drawn) [Example 211A, 4-amino-5-(4-fluorophenyl)-5-methyl-2-(8-(4,4,4-trifluorobutyl)imidazo[1,2-a]pyrazin-6-yl)-5H-pyrrolo[2,3-d]pyrimidin-6(7H)-one]
Maximum peak decrease of systolic blood pressure (SBP) in SHR, Cat. ([2]; P.O. 0.3 mpk): A (Category A=SBP in SHRs<20 mmHg)

Emax [1]: 107%
pEC50 [1]: 6.45
Structure (SMILES): CCC1(c2ccc(F)cc2)C(=O)Nc2nc(-c3cn4ccnc4c(CCCC(F)(F)F)n3)nc(N)c21 (stereo not drawn) [Example 215A, 4-amino-5-ethyl-5-(4-fluorophenyl)-2-(8-(4,4,4-trifluorobutyl)imidazo[1,2-a]pyrazin-6-yl)-5H-pyrrolo[2,3-d]pyrimidin-6(7H)-one]
Maximum peak decrease of systolic blood pressure (SBP) in SHR, Cat. ([2]; P.O. 0.3 mpk): B (Category B=SBP in SHRs 20-40 mmHg)

The remaining lines, values behind:

Structure (SMILES): CCC1(c2ccc(Cl)c(F)c2)C(=O)Nc2nc(-c3cn4ccnc4c(CCC(F)(F)F)n3)nc(N)c21 (stereo not drawn) [Example 199A, 4-amino-5-(4-chloro-3-fluorophenyl)-5-ethyl-2-(8-(3,3,3-trifluoropropyl)imidazo[1,2-a]pyrazin-6-yl)-5H-pyrrolo[2,3-d]pyrimidin-6(7H)-one]
Emax [1]: 101%
pEC50 [1]: 6.26
Maximum peak decrease of systolic blood pressure (SBP) in SHR, Cat. ([2]; P.O. 3.0 mpk): B (Category B=SBP in SHRs 20-40 mmHg)

Structure (SMILES): CC1(c2ccc(Cl)cn2)C(=O)Nc2nc(-c3cn4ccnc4c(CCC(F)(F)F)n3)nc(N)c21 (stereo not drawn) [Example 201A, 4-amino-5-(5-chloropyridin-2-yl)-5-methyl-2-(8-(3,3,3-trifluoropropyl)imidazo[1,2-a]pyrazin-6-yl)-5H-pyrrolo[2,3-d]pyrimidin-6(7H)-one]
Emax [1]: 140%
pEC50 [1]: 6.03
Maximum peak decrease of systolic blood pressure (SBP) in SHR, Cat. ([2]; P.O. 3.0 mpk): C (Category C=SBP in SHRs>40 mmHg)

Structure (SMILES): CC1(c2ccc(F)cn2)C(=O)Nc2nc(-c3cn4ccnc4c(CCC(F)(F)F)n3)nc(N)c21 (stereo not drawn) [Example 202B, 4-amino-5-(5-fluoropyridin-2-yl)-5-methyl-2-(8-(3,3,3-trifluoropropyl)imidazo[1,2-a]pyrazin-6-yl)-5H-pyrrolo[2,3-d]pyrimidin-6(7H)-one]
Emax [1]: 91%
pEC50 [1]: 6.06
Maximum peak decrease of systolic blood pressure (SBP) in SHR, Cat. ([2]; P.O. 3.0 mpk): B (Category B=SBP in SHRs 20-40 mmHg)

Structure (SMILES): CC1(c2ccc(Cl)cn2)C(=O)Nc2nc(-c3cn4ccnc4c(CCCC(F)(F)F)n3)nc(N)c21 (stereo not drawn) [Example 208A, 4-amino-5-(5-chloropyridin-2-yl)-5-methyl-2-(8-(4,4,4-trifluorobutyl)imidazo[1,2-a]pyrazin-6-yl)-5H-pyrrolo[2,3-d]pyrimidin-6(7H)-one]
Emax [1]: 88%
pEC50 [1]: 7.44
Maximum peak decrease of systolic blood pressure (SBP) in SHR, Cat. ([2]; P.O. 0.3 mpk): C (Category C=SBP in SHRs>40 mmHg)

Structure (SMILES): CCC1(c2ccc(Cl)cc2)C(=O)Nc2nc(-c3cn4ccnc4c(CCCC(F)(F)F)n3)nc(N)c21 (stereo not drawn) [Example 209B, 4-amino-5-(4-chlorophenyl)-5-ethyl-2-(8-(4,4,4-trifluorobutyl)imidazo[1,2-a]pyrazin-6-yl)-5H-pyrrolo[2,3-d]pyrimidin-6(7H)-one]
Emax [1]: 111%
pEC50 [1]: 7.31
Maximum peak decrease of systolic blood pressure (SBP) in SHR, Cat. ([2]; P.O. 0.3 mpk): B (Category B=SBP in SHRs 20-40 mmHg)

Structure (SMILES): CC1(c2ccc(C(F)(F)F)cn2)C(=O)Nc2nc(-c3cn4ccnc4c(CCCC(F)(F)F)n3)nc(N)c21 (stereo not drawn) [Example 213B, 4-amino-5-methyl-2-(8-(4,4,4-trifluorobutyl)imidazo[1,2-a]pyrazin-6-yl)-5-(5-(trifluoromethyl)pyridin-2-yl)-5H-pyrrolo[2,3-d]pyrimidin-6(7H)-one]
Emax [1]: 89%
pEC50 [1]: 7.00
Maximum peak decrease of systolic blood pressure (SBP) in SHR, Cat. ([2]; P.O. 0.3 mpk): B (Category B=SBP in SHRs 20-40 mmHg)

Structure (SMILES): CC1(c2ccc(OC(F)F)cn2)C(=O)Nc2nc(-c3cn4ccnc4c(CCCC(F)(F)F)n3)nc(N)c21 (stereo not drawn) [Example 214A, 4-amino-5-(5-(difluoromethoxy)pyridin-2-yl)-5-methyl-2-(8-(4,4,4-trifluorobutyl)imidazo[1,2-a]pyrazin-6-yl)-5H-pyrrolo[2,3-d]pyrimidin-6(7H)-one]
Emax [1]: 92%
pEC50 [1]: 6.61
Maximum peak decrease of systolic blood pressure (SBP) in SHR, Cat. ([2]; P.O. 1.0 mpk): B (Category B=SBP in SHRs 20-40 mmHg)

Structure (SMILES): CCOc1ccc(C2(C)C(=O)Nc3nc(-c4cn5ccnc5c(CCCC(F)(F)F)n4)nc(N)c32)nc1 (stereo not drawn) [Example 216A, 4-amino-5-(5-ethoxypyridin-2-yl)-5-methyl-2-(8-(4,4,4-trifluorobutyl)imidazo[1,2-a]pyrazin-6-yl)-5H-pyrrolo[2,3-d]pyrimidin-6(7H)-one]
Emax [1]: 77%
pEC50 [1]: 6.84
Maximum peak decrease of systolic blood pressure (SBP) in SHR, Cat. ([2]; P.O. 1.0 mpk): B (Category B=SBP in SHRs 20-40 mmHg)

Structure (SMILES): Nc1nc(-c2cn3ccnc3c(CCCC(F)(F)F)n2)nc2c1C(c1ccc(F)cn1)(C1CC1)C(=O)N2 (stereo not drawn) [Example 217A, 4-amino-5-cyclopropyl-5-(5-fluoropyridin-2-yl)-2-(8-(4,4,4-trifluorobutyl)imidazo[1,2-a]pyrazin-6-yl)-5H-pyrrolo[2,3-d]pyrimidin-6(7H)-one]
Emax [1]: 82%
pEC50 [1]: 6.54
Maximum peak decrease of systolic blood pressure (SBP) in SHR, Cat. ([2]; P.O. 1.0 mpk): C (Category C=SBP in SHRs>40 mmHg)

Structure (SMILES): Nc1nc(-c2cn3ccnc3c(CCCC(F)(F)F)n2)nc2c1C(c1ccc(Cl)cn1)(C1CC1)C(=O)N2 (stereo not drawn) [Example 218B, 4-amino-5-(5-chloropyridin-2-yl)-5-cyclopropyl-2-(8-(4,4,4-trifluorobutyl)imidazo[1,2-a]pyrazin-6-yl)-5H-pyrrolo[2,3-d]pyrimidin-6(7H)-one]
Emax [1]: 126%
pEC50 [1]: 6.60
Maximum peak decrease of systolic blood pressure (SBP) in SHR, Cat. ([2]; P.O. 1.0 mpk): C (Category C=SBP in SHRs>40 mmHg)

Structure (SMILES): Nc1nc(-c2cn3ccnc3c(CCCC(F)(F)F)n2)nc2c1C(c1ccc(C(F)(F)F)cn1)(C1CC1)C(=O)N2 (stereo not drawn) [Example 219A, 4-amino-5-cyclopropyl-2-(8-(4,4,4-trifluorobutyl)imidazo[1,2-a]pyrazin-6-yl)-5-(5-(trifluoromethyl)pyridin-2-yl)-5H-pyrrolo[2,3-d]pyrimidin-6(7H)-one]
Emax [1]: 124%
pEC50 [1]: 7.28
Maximum peak decrease of systolic blood pressure (SBP) in SHR, Cat. ([2]; P.O. 1.0 mpk): B (Category B=SBP in SHRs 20-40 mmHg)
